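Cells were grown in 96-well plates and exposed to each compound for 48 hours at five concentrations; endpoints were interpolated linearly between bracketing concentrations, or set to the highest concentration if not reached. GI50: concentration for 50% inhibition of growth.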 Calls of active or inactive are those of the source. No stated cut-off is given here; in the data, active = GI50 up to about 1.1 µM and inactive = higher.
How the values were obtained:
Experiment in all cases: NCI-60 cell line screen, 48 h
K562 = system: K562
KM12 = system: KM12
SN12C = system: SN12C
DLD-1 = system: DLD-1
DMS-114 = system: DMS-114
CAKI-1 = system: CAKI-1
OVCAR-4 = system: OVCAR-4
LXFL 529 = system: LXFL 529
M14 = system: M14
HL-60 = system: HL-60
SK-OV-3 = system: SK-OV-3
UACC-62 = system: UACC-62
HOP-62 = system: HOP-62
MOLT-4 = system: MOLT-4
SNB-75 = system: SNB-75
LOX IMVI = system: LOX IMVI
OVCAR-5 = system: OVCAR-5
NCI-H23 = system: NCI-H23
NCI-H522 = system: NCI-H522
Malme-3M = system: Malme-3M
SNB-78 = system: SNB-78
U-251 = system: U-251
SF-295 = system: SF-295
OVCAR-3 = system: OVCAR-3
SR = system: SR
RXF 631 = system: RXF 631
COLO 205 = system: COLO 205
NCI-H226 = system: NCI-H226
XF498 = system: XF498
UO-31 = system: UO-31
KM-20L2 = system: KM-20L2
OVCAR-8 = system: OVCAR-8
HOP-92 = system: HOP-92
ACHN = system: ACHN
SF-539 = system: SF-539
EKVX = system: EKVX
M19-MEL = system: M19-MEL
SNB-19 = system: SNB-19
SK-MEL-2 = system: SK-MEL-2
HCT-15 = system: HCT-15
NCI-H460 = system: NCI-H460
DMS-273 = system: DMS-273
SF-268 = system: SF-268
IGROV-1 = system: IGROV-1
RPMI-8226 = system: RPMI-8226
HCT-116 = system: HCT-116
UACC-257 = system: UACC-257
CCRF-CEM = system: CCRF-CEM
786-0 = system: 786-0
SW-620 = system: SW-620
A549 = system: A549
HT-29 = system: HT-29
RXF 393 = system: RXF 393
TK-10 = system: TK-10
A498 = system: A498
HOP-18 = system: HOP-18
HCC 2998 = system: HCC 2998
SK-MEL-5 = system: SK-MEL-5
SK-MEL-28 = system: SK-MEL-28

Compound: O=c1cccccc1NCCNc1cccccc1=O
- GI50 (K562): > 100 µM (inactive)
- GI50 (KM12): > 100 µM (inactive)
- GI50 (SN12C): 13.6 µM (inactive)
- GI50 (DLD-1): > 10 µM (inactive)
- GI50 (DMS-114): > 100 µM (inactive)
- GI50 (CAKI-1): > 100 µM (inactive)
- GI50 (OVCAR-4): > 100 µM (inactive)
- GI50 (LXFL 529): > 100 µM (inactive)
- GI50 (M14): > 100 µM (inactive)
- GI50 (HL-60): > 100 µM (inactive)
- GI50 (SK-OV-3): > 100 µM (inactive)
- GI50 (UACC-62): > 100 µM (inactive)
- GI50 (HOP-62): > 100 µM (inactive)
- GI50 (MOLT-4): > 100 µM (inactive)
- GI50 (SNB-75): > 10 µM (inactive)
- GI50 (LOX IMVI): > 100 µM (inactive)
- GI50 (OVCAR-5): > 100 µM (inactive)
- GI50 (NCI-H23): > 100 µM (inactive)
- GI50 (NCI-H522): > 100 µM (inactive)
- GI50 (Malme-3M): 13.9 µM (inactive)
- GI50 (SNB-78): > 100 µM (inactive)
- GI50 (U-251): > 100 µM (inactive)
- GI50 (SF-295): > 100 µM (inactive)
- GI50 (OVCAR-3): > 100 µM (inactive)
- GI50 (SR): > 100 µM (inactive)
- GI50 (RXF 631): > 100 µM (inactive)
- GI50 (COLO 205): > 100 µM (inactive)
- GI50 (NCI-H226): > 100 µM (inactive)
- GI50 (XF498): > 100 µM (inactive)
- GI50 (UO-31): > 100 µM (inactive)
- GI50 (KM-20L2): > 100 µM (inactive)
- GI50 (OVCAR-8): > 100 µM (inactive)
- GI50 (HOP-92): > 100 µM (inactive)
- GI50 (ACHN): > 100 µM (inactive)
- GI50 (SF-539): > 100 µM (inactive)
- GI50 (EKVX): > 100 µM (inactive)
- GI50 (M19-MEL): > 100 µM (inactive)
- GI50 (SNB-19): > 100 µM (inactive)
- GI50 (SK-MEL-2): > 100 µM (inactive)
- GI50 (HCT-15): > 100 µM
- GI50 (NCI-H460): > 100 µM (inactive)
- GI50 (DMS-273): > 100 µM (inactive)
- GI50 (SF-268): > 100 µM (inactive)
- GI50 (IGROV-1): > 100 µM (inactive)
- GI50 (RPMI-8226): > 100 µM (inactive)
- GI50 (HCT-116): > 100 µM (inactive)
- GI50 (UACC-257): > 100 µM (inactive)
- GI50 (CCRF-CEM): > 100 µM (inactive)
- GI50 (786-0): > 100 µM (inactive)
- GI50 (SW-620): > 100 µM (inactive)
- GI50 (A549): > 100 µM (inactive)
- GI50 (HT-29): > 100 µM (inactive)
- GI50 (RXF 393): 68.2 µM (inactive)

Compound: Cn1c2c([N+](=O)[O-])cccc2c(=O)c2c(O)cc3c(c21)C=CC(C)(C)O3
- GI50 (K562): 39.3 µM (inactive)
- GI50 (KM12): 23.2 µM (inactive)
- GI50 (SN12C): 52 µM (inactive)
- GI50 (TK-10): 54.6 µM (inactive)
- GI50 (DLD-1): 24.8 µM (inactive)
- GI50 (DMS-114): 22.8 µM (inactive)
- GI50 (CAKI-1): 18.7 µM (inactive)
- GI50 (OVCAR-4): 20.8 µM (inactive)
- GI50 (LXFL 529): 25.6 µM (inactive)
- GI50 (M14): 86.7 µM (inactive)
- GI50 (HL-60): 16.6 µM (inactive)
- GI50 (SK-OV-3): 46.7 µM (inactive)
- GI50 (UACC-62): 21.7 µM (inactive)
- GI50 (MOLT-4): 42.9 µM (inactive)
- GI50 (SNB-75): 23.9 µM (inactive)
- GI50 (LOX IMVI): 25.2 µM (inactive)
- GI50 (OVCAR-5): 35.7 µM (inactive)
- GI50 (NCI-H23): 30.8 µM (inactive)
- GI50 (A498): 5.51 µM (inactive)
- GI50 (NCI-H522): 11.2 µM (inactive)
- GI50 (Malme-3M): 40.2 µM (inactive)
- GI50 (SNB-78): 38 µM (inactive)
- GI50 (U-251): > 100 µM (inactive)
- GI50 (SF-295): 24.1 µM (inactive)
- GI50 (HOP-18): < 0.01 µM (active)
- GI50 (RXF 631): 33.7 µM (inactive)
- GI50 (COLO 205): 44.8 µM (inactive)
- GI50 (XF498): 11.5 µM (inactive)
- GI50 (HCC 2998): 20.7 µM (inactive)
- GI50 (UO-31): 40.6 µM (inactive)
- GI50 (KM-20L2): 17.7 µM (inactive)
- GI50 (OVCAR-8): 29.6 µM (inactive)
- GI50 (SK-MEL-5): 28.3 µM (inactive)
- GI50 (ACHN): 43.5 µM (inactive)
- GI50 (SF-539): 22.5 µM (inactive)
- GI50 (EKVX): 6.59 µM (inactive)
- GI50 (SNB-19): 41.7 µM (inactive)
- GI50 (SK-MEL-2): 35.9 µM (inactive)
- GI50 (HCT-15): 20.7 µM
- GI50 (NCI-H460): 36.6 µM (inactive)
- GI50 (DMS-273): 33.2 µM (inactive)
- GI50 (SF-268): 38.9 µM (inactive)
- GI50 (IGROV-1): 34.4 µM (inactive)
- GI50 (RPMI-8226): 18.4 µM (inactive)
- GI50 (UACC-257): 46.5 µM (inactive)
- GI50 (CCRF-CEM): 41 µM (inactive)
- GI50 (786-0): 32 µM (inactive)
- GI50 (SW-620): 69.3 µM (inactive)
- GI50 (A549): 34.8 µM (inactive)
- GI50 (HT-29): 23.4 µM (inactive)
- GI50 (SK-MEL-28): 84.5 µM (inactive)
- GI50 (RXF 393): 18.1 µM (inactive)

Compound: COc1cc(/C=C\c2ccccn2)cc(OC)c1OC
- GI50 (K562): 32.1 µM (inactive)
- GI50 (KM12): 63.8 µM (inactive)
- GI50 (SN12C): > 100 µM (inactive)
- GI50 (TK-10): > 100 µM (inactive)
- GI50 (DLD-1): > 100 µM (inactive)
- GI50 (DMS-114): 45.6 µM (inactive)
- GI50 (CAKI-1): > 100 µM (inactive)
- GI50 (OVCAR-4): > 100 µM (inactive)
- GI50 (LXFL 529): 70.5 µM (inactive)
- GI50 (M14): 55.6 µM (inactive)
- GI50 (HL-60): 31 µM (inactive)
- GI50 (UACC-62): 60 µM (inactive)
- GI50 (HOP-62): 79.4 µM (inactive)
- GI50 (MOLT-4): 61.9 µM (inactive)
- GI50 (SNB-75): 47.3 µM (inactive)
- GI50 (LOX IMVI): 64 µM (inactive)
- GI50 (OVCAR-5): > 100 µM (inactive)
- GI50 (NCI-H23): > 100 µM (inactive)
- GI50 (A498): 78.5 µM (inactive)
- GI50 (NCI-H522): 70 µM (inactive)
- GI50 (Malme-3M): > 100 µM (inactive)
- GI50 (SNB-78): > 100 µM (inactive)
- GI50 (U-251): > 100 µM (inactive)
- GI50 (SF-295): > 100 µM (inactive)
- GI50 (HOP-18): > 100 µM (inactive)
- GI50 (OVCAR-3): > 100 µM (inactive)
- GI50 (RXF 631): > 100 µM (inactive)
- GI50 (COLO 205): 66.1 µM (inactive)
- GI50 (NCI-H226): > 100 µM (inactive)
- GI50 (XF498): 16.2 µM (inactive)
- GI50 (UO-31): 56.9 µM (inactive)
- GI50 (KM-20L2): 71.4 µM (inactive)
- GI50 (OVCAR-8): > 100 µM (inactive)
- GI50 (SK-MEL-5): 57.5 µM (inactive)
- GI50 (HOP-92): 16.4 µM (inactive)
- GI50 (ACHN): > 100 µM (inactive)
- GI50 (SF-539): > 100 µM (inactive)
- GI50 (EKVX): 48.5 µM (inactive)
- GI50 (M19-MEL): 67.3 µM (inactive)
- GI50 (SNB-19): > 100 µM (inactive)
- GI50 (HCT-15): 78.3 µM
- GI50 (NCI-H460): > 100 µM (inactive)
- GI50 (DMS-273): 75 µM (inactive)
- GI50 (SF-268): > 100 µM (inactive)
- GI50 (IGROV-1): > 100 µM (inactive)
- GI50 (RPMI-8226): 30.6 µM (inactive)
- GI50 (HCT-116): > 100 µM (inactive)
- GI50 (UACC-257): > 100 µM (inactive)
- GI50 (CCRF-CEM): > 100 µM (inactive)
- GI50 (786-0): > 100 µM (inactive)
- GI50 (SW-620): 41.8 µM (inactive)
- GI50 (A549): 85.7 µM (inactive)
- GI50 (HT-29): 46.3 µM (inactive)
- GI50 (SK-MEL-28): > 100 µM (inactive)
- GI50 (RXF 393): > 100 µM (inactive)
